The compounds below were run against T1, Sterol O-acyltransferase 1 (Homo sapiens) (UniProt P35610) (assay: Inhibition of human ACAT1 expressed in Hi5 cells at 120 uM). Details: BTI-TN-5B1-4.
T1 sequence (whole entry): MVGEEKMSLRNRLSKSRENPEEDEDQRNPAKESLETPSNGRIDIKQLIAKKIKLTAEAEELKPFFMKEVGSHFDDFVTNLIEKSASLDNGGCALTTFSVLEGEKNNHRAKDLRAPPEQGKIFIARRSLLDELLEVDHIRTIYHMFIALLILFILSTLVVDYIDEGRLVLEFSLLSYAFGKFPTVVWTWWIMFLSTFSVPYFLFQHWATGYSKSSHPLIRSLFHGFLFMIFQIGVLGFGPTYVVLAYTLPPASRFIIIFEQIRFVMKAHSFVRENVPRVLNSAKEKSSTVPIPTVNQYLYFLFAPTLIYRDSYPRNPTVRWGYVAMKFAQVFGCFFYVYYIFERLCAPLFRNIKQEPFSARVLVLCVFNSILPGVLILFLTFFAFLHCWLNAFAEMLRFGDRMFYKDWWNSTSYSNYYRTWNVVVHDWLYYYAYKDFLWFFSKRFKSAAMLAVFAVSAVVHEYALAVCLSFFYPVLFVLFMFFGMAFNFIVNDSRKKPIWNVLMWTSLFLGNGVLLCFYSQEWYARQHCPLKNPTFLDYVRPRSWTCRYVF

Row | Compound | inhibition [%]
1 | CC(C)=CC[C@@H](OC(=O)C(C)C)C1=CC(=O)c2c(O)ccc(O)c2C1=O [ISOBUTYLSHIKONIN] | 32

Each compound was assayed against T2, Sterol O-acyltransferase 1 (Homo sapiens, UniProt P35610) (assay: Inhibition of human ACAT1 expressed in AC29 cells by cell-based fluorescent assay system). Details: not given.
T2 sequence (P35610 whole entry): T1 sequence (whole entry)

Row | Compound | IC50 [µM]
2 | CC(C)=CC[C@@H](OC(=O)CC(C)C)C1=CC(=O)c2c(O)ccc(O)c2C1=O | 0.6

The compounds below were run against T3, Sterol O-acyltransferase 2 (Homo sapiens, UniProt O75908) (assay: Inhibition of human ACAT2 expressed in Hi5 cells). Details: not given.
T3 sequence (O75908 whole entry): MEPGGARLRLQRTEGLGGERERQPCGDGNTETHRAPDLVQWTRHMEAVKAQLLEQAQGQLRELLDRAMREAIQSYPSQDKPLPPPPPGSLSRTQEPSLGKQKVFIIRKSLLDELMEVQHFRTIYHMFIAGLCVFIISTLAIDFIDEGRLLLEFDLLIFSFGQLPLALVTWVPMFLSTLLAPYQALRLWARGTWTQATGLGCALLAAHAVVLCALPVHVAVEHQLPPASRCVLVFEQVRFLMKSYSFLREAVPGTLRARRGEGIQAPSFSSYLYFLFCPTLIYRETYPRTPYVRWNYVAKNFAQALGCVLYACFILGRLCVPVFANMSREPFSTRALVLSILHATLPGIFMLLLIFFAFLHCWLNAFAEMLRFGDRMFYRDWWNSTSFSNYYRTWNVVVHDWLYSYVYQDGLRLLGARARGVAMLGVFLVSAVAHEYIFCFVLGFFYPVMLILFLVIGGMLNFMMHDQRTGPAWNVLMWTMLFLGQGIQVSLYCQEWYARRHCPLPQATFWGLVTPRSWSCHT
Parameters: species or system BTI-TN-5B1-4

Row | Compound | IC50 [µM]
3 | CCC(=O)O[C@H](CC=C(C)C)C1=CC(=O)c2c(O)ccc(O)c2C1=O | 28.7
4 | CC(C)=CC[C@@H](OC(=O)c1ccccc1)C1=CC(=O)c2c(O)ccc(O)c2C1=O | 56.2
5 | C=CCCC(=O)O[C@H](CC=C(C)C)C1=CC(=O)c2c(O)ccc(O)c2C1=O | 71.4
6 | CC(C)=CC[C@@H](OC(=O)CC(C)(C)O)C1=CC(=O)c2c(O)ccc(O)c2C1=O [BETA-HYDROXYISOVALERYLSHIKONIN] | 170
7 | CC(C)=CC[C@@H](O)C1=CC(=O)c2c(O)ccc(O)c2C1=O [SHIKONIN] | 138

Now from value to compound:

Row | IC50 [µM] | Compound
8 | 112 | CC(=O)O[C@H](CC=C(C)C)C1=CC(=O)c2c(O)ccc(O)c2C1=O [ACETYLSHIKONIN]
9 | 57.5 | CC(C)=CC[C@@H](OC(=O)C(C)C)C1=CC(=O)c2c(O)ccc(O)c2C1=O [ISOBUTYLSHIKONIN]
10 | 84.5 | CCCCC(=O)O[C@H](CC=C(C)C)C1=CC(=O)c2c(O)ccc(O)c2C1=O
11 | 49.6 | CCCC(=O)O[C@H](CC=C(C)C)C1=CC(=O)c2c(O)ccc(O)c2C1=O

These compounds were tested against T2, Sterol O-acyltransferase 1 (assay: Inhibition of human ACAT1 expressed in Hi5 cells). Details: not given.
Parameters: species or system BTI-TN-5B1-4

Row | Compound | IC50 [µM]
12 | CC(C)=CC[C@@H](OC(=O)CC(C)C)C1=CC(=O)c2c(O)ccc(O)c2C1=O | 13.8

From ChEMBL document CHEMBL1139051, “Human ACAT inhibitory effects of shikonin derivatives from Lithospermum erythrorhizon” (Bioorg Med Chem Lett, 2007)
